*1 amine or outer side, *2 acyl side, *3 side chain or, on linkers, in order; H or OH if unused. Where a SMILES comes first, the peptide text is derived from it. Where no end group is shown, it is not given here. [ ]: non-standard residue; d: D form. hGln = L-homoglutamine, NC(=O)CCC[C@H](N[*:1])C(=O)[*:2]; pyridine‑bisazole = not defined here
T1: TLR10 (Homo sapiens, UniProt Q9BXR5)
T1 sequence (Q9BXR5 20-576): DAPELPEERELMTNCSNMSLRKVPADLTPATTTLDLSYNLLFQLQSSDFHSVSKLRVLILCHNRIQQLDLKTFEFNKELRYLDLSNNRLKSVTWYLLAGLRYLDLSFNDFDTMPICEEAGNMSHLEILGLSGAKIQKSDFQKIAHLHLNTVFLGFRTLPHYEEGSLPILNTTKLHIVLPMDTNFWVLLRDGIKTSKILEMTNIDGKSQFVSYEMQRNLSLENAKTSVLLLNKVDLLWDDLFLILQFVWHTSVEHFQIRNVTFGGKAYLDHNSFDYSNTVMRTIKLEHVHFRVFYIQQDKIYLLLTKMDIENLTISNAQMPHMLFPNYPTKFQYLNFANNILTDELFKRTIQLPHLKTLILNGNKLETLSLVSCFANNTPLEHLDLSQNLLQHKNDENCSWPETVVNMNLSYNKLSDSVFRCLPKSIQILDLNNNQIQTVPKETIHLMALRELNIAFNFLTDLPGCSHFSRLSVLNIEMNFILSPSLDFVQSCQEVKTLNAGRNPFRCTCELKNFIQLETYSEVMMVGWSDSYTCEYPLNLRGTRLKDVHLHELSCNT

T2: Human TLR10 Fc Chimera protein (extracellular domain) (Homo sapiens, UniProt Q9BXR5)
T2 construct: Chimera protein (extracellular domain, amino acid 20-576;); Fc (chimera); purchased R&D system #6619-TR-050
T2 sequence (Q9BXR5 20-576): T1 sequence (Q9BXR5 20-576)

T3: toll-like receptor 10, extracellular domain (UniProt Q9BXR5 20-576)
T3 construct: toll-like receptor 10 (TLR10), extracellular domain; also called TLR10; TLR10 cell surface receptor
T3 sequence (looked up): T1 sequence (Q9BXR5 20-576)

B1: thiopeptide TL4 (synthetic) (peptide)
chain: SWTIRFTNQNKIAFSCSC
modifications: bridge (positions not given here) via pyridine‑bisazole; reading uncertain; also: macrocycle closed through pyridine-bisazole moiety, oxazole to thiazole change
B2: thiopeptide TL3 (synthetic) (peptide)
chain: SW[hGln]ISFWLQRKVAFSCSC
modifications: bridge (positions not given here) via pyridine‑bisazole; reading uncertain; also: macrocycle closed through a pyridine-bisazole moiety, oxazole to thiazole change

Legend:
TLR10 [1] = molecular target: T1, TLR10; assay: mRNA display affinity selection against TLR10, NGS abundance; format: binding; parameters: Chimera protein (extracellular domain, amino acid 20-576;); Fc (chimera); purchased R&D system #6619-TR-050; settings: for rank in pulldown(–) / rank in pulldown(+): TLR10 selection, NGS abundance rank; for rank in pulldown(+): –: not found in the final pulldown(+) libraries at the sequenced depth
Serum stability assay = format: in vitro ADME; settings: human serum, 37 °C, LC/MS; for half-life at 10 µM: pH 7.6, read-out: serum stability τ1/2 (converted)
Experimental: Next, we tested the metabolic stability of the discovered thiopeptides. The compounds were incubated in human serum at 37 °C in the presence of an internal control, and the amounts of the remaining analytes were quantified by LC/MS (Figures S27 and 28). […] At the other extreme, IR11 rapidly degraded in human serum with τ1/2 = 0.5 h. […]
Kinetic parameters and affinities of the […]
2.12. Thiopeptide metabolic stability experiments
The mixtures were stirred
well and transferred to a 37 °C thermostat. […]

TLR10 [2] = molecular target: T1, TLR10; assay: Single-round mRNA display binding assay (qPCR), TLR10; settings: ratio of cDNA recoveries (qPCR), TLR10 pulldown over beads only, single-round selection
[3] = molecular target: T2, Human TLR10 Fc Chimera protein (extracellular domain); assay: Surface plasmon resonance binding to TLR10; settings: SPR
Experimental: Reagents were purchased from Nacalai Tesque, Wako Pure Chemical Industries, Sigma-Aldrich Japan, or TCI Chemicals and were used as received. […]
Anti-HA magnetic beads were from Pierce Thermo […]
2000c spectrophotometer (Thermo Scientific) equipped with a 5 mm pathlength quartz cuvette using extinction coefficient values calculated with ExPASy ProtParam tool (https://web.expasy.org/protparam). […]
Biochemical measurements (sections 2.10 – 2.14) were performed in triplicate or more. Most […]
determination of biophysical parameters involved cell assay (CP50 and IC50), reported are standard errors of the fit; otherwise, error bars are standard deviations. […]

[4] = molecular target: T3, toll-like receptor 10, extracellular …; assay: SPR; surface plasmon resonance of synthetic thiopeptides on their target protein; conditions in S.I. 2.10 (not shown); settings: both partners purified
[5] = TLR10 selection pulldown (-), Top100 selection hits, NGS

Molecule	rank in pulldown(–) (TLR10 [1])	rank in pulldown(+) (TLR10 [1])	half-life at 10 µM (Serum stability assay)	display P/N ratio (TLR10 [2])	koff [3]	kon [3]	serum stability τ1/2 (Serum stability assay)	fraction of the pulldown(−) population (TLR10 [1]; TLR10 pulldown(−) selection, NGS)	Library fraction (TLR10 [1]; [5])	Raw reads (TLR10 [1]; [5])	Kd [4]
C=C1NC(=O)[C@H](CCCC(N)=O)NC(=O)[C@H](Cc2ccc(O)cc2)NC(=O)[C@H](CC(C)C)NC(=O)[C@H](CCCC)NC(=O)[C@H](CC(N)=O)NC(=O)[C@H]([C@@H](C)O)NC(=O)[C@H](CCC(N)=O)NC(=O)[C@H](CCCCN)NC(=O)[C@H]([C@@H](C)CC)NC(=O)[C@H](CC(C)C)NC(=O)[C@H](CC(C)C)NC(=O)[C@H](C)NC(=O)[C@H](Cc2c[nH]c3ccccc23)NC(=O)c2ccc(-c3nc(C(=O)OC)cs3)nc2-c2csc1n2 [TL17] (HELM PEPTIDE1{W.A.L.L.I.K.Q.T.N.[Nle].L.Y.[O=C([C@H](CCCC(=O)[*:3])N[*:1])[*:2]]}|PEPTIDE2{[am]}|CHEM1{[C=C(N[*:2])c1nc(-c2nc(-c3nc(C(=O)OC)cs3)ccc2C(=O)[*:1])cs1]}$PEPTIDE1,PEPTIDE2,13:R3-1:R1|PEPTIDE1,CHEM1,1:R1-1:R1|PEPTIDE1,CHEM1,13:R2-1:R2$$$V2.0; bridges inferred)	9	10	6 ± 0.1 h	737	0.0067 s⁻¹	18900 M⁻¹ s⁻¹					
C=C1NC(=O)[C@H](Cc2ccccc2)NC(=O)[C@H](C)NC(=O)[C@H]([C@@H](C)CC)NC(=O)[C@H](CCCCN)NC(=O)[C@H](CC(N)=O)NC(=O)[C@H](CCC(N)=O)NC(=O)[C@H](CC(N)=O)NC(=O)[C@H]([C@@H](C)O)NC(=O)[C@H](Cc2ccccc2)NC(=O)[C@H](CCCNC(=N)N)NC(=O)[C@H]([C@@H](C)CC)NC(=O)[C@H]([C@@H](C)O)NC(=O)[C@H](Cc2c[nH]c3ccccc23)NC(=O)c2ccc(-c3nc(C(=O)OC)cs3)nc2-c2csc1n2 [TL4] (HELM PEPTIDE1{W.T.I.R.F.T.N.Q.N.K.I.A.F}|CHEM1{[C=C(N[*:2])c1nc(-c2nc(-c3nc(C(=O)OC)cs3)ccc2C(=O)[*:1])cs1]}$PEPTIDE1,CHEM1,1:R1-1:R1|PEPTIDE1,CHEM1,13:R2-1:R2$$$V2.0; bridges inferred)	3	7	4.4 ± 0.3 h	975	0.033 s⁻¹	47500 M⁻¹ s⁻¹					
C=C1NC(=O)[C@H](Cc2c[nH]cn2)NC(=O)[C@H]([C@@H](C)CC)NC(=O)[C@H](C(C)C)NC(=O)[C@H](C(C)C)NC(=O)[C@H](CC(N)=O)NC(=O)[C@H](C(C)C)NC(=O)[C@H](CCCNC(=N)N)NC(=O)[C@H](CO)NC(=O)[C@H](CC(C)C)NC(=O)[C@H](CCC(=O)O)NC(=O)[C@H](CC(C)C)NC(=O)[C@H](CO)NC(=O)[C@H](Cc2c[nH]c3ccccc23)NC(=O)c2ccc(-c3nc(C(=O)OC)cs3)nc2-c2csc1n2 [TL20] (HELM PEPTIDE1{W.S.L.E.L.S.R.V.N.V.V.I.H}|CHEM1{[C=C(N[*:2])c1nc(-c2nc(-c3nc(C(=O)OC)cs3)ccc2C(=O)[*:1])cs1]}$PEPTIDE1,CHEM1,1:R1-1:R1|PEPTIDE1,CHEM1,13:R2-1:R2$$$V2.0; bridges inferred)	52		38.2 ± 6 h	286	0.0078 s⁻¹	25500 M⁻¹ s⁻¹	38 h				
C=C1NC(=O)[C@H](Cc2ccccc2)NC(=O)[C@H](C)NC(=O)[C@H](C(C)C)NC(=O)[C@H](CCCCN)NC(=O)[C@H](CCCNC(=N)N)NC(=O)[C@H](CCC(N)=O)NC(=O)[C@H](CC(C)C)NC(=O)[C@H](Cc2c[nH]c3ccccc23)NC(=O)[C@H](Cc2ccccc2)NC(=O)[C@H](CO)NC(=O)[C@H]([C@@H](C)CC)NC(=O)[C@H](CCCC(N)=O)NC(=O)[C@H](Cc2c[nH]c3ccccc23)NC(=O)c2ccc(-c3nc(C(=O)OC)cs3)nc2-c2csc1n2 [TL3] (HELM PEPTIDE1{W.[O=C([C@H](CCCC(=O)[*:3])N[*:1])[*:2]].I.S.F.W.L.Q.R.K.V.A.F}|PEPTIDE2{[am]}|CHEM1{[C=C(N[*:2])c1nc(-c2nc(-c3nc(C(=O)OC)cs3)ccc2C(=O)[*:1])cs1]}$PEPTIDE1,PEPTIDE2,2:R3-1:R1|PEPTIDE1,CHEM1,1:R1-1:R1|PEPTIDE1,CHEM1,13:R2-1:R2$$$V2.0; bridges inferred)	2		3.2 ± 0.2 h	186	0.0056 s⁻¹	6270 M⁻¹ s⁻¹		8.1%	0.095	11388	
C=C1NC(=O)[C@H](CCCCN)NC(=O)[C@H]([C@@H](C)CC)NC(=O)[C@H](CCCC)NC(=O)[C@H](C(C)C)NC(=O)[C@H](CCCNC(=N)N)NC(=O)CNC(=O)[C@H]([C@@H](C)CC)NC(=O)[C@H](Cc2c[nH]c3ccccc23)NC(=O)c2ccc(-c3nc(C(=O)OC)cs3)nc2-c2csc(n2)C(=C)NC(=O)c2coc1n2 [TL19] (HELM PEPTIDE1{W.I.G.R.V.[Nle].I.K.[C=C(N[*:1])c1nc(C(=O)[*:2])co1]}|CHEM1{[C=C(N[*:2])c1nc(-c2nc(-c3nc(C(=O)OC)cs3)ccc2C(=O)[*:1])cs1]}$PEPTIDE1,CHEM1,1:R1-1:R1|PEPTIDE1,CHEM1,9:R2-1:R2$$$V2.0; bridges inferred)	22	16	7.4 ± 1.5 h	263	0.0032 s⁻¹	5540 M⁻¹ s⁻¹					
C=C1NC(=O)[C@H]([C@@H](C)CC)NC(=O)[C@H](C)NC(=O)[C@H](CC(C)C)NC(=O)[C@H](CCCCN)NC(=O)[C@H](CO)NC(=O)[C@H](CCC(N)=O)NC(=O)[C@H](CC(C)C)NC(=O)[C@H](CCCNC(=N)N)NC(=O)[C@H](Cc2ccccc2)NC(=O)[C@H](CC(C)C)NC(=O)[C@H](CCCC)NC(=O)[C@H]([C@@H](C)O)NC(=O)[C@H](Cc2c[nH]c3ccccc23)NC(=O)c2ccc(-c3nc(C(=O)OC)cs3)nc2-c2csc1n2 [TL6] (HELM PEPTIDE1{W.T.[Nle].L.F.R.L.Q.S.K.L.A.I}|CHEM1{[C=C(N[*:2])c1nc(-c2nc(-c3nc(C(=O)OC)cs3)ccc2C(=O)[*:1])cs1]}$PEPTIDE1,CHEM1,1:R1-1:R1|PEPTIDE1,CHEM1,13:R2-1:R2$$$V2.0)	12		8.2 ± 1.2 h	268	0.0048 s⁻¹	7650 M⁻¹ s⁻¹					
C=C1NC(=O)CNC(=O)[C@H]([C@@H](C)CC)NC(=O)[C@H]([C@@H](C)CC)NC(=O)CNC(=O)[C@H](CCC(N)=O)NC(=O)CNC(=O)[C@H](CCCC(N)=O)NC(=O)[C@H](Cc2c[nH]c3ccccc23)NC(=O)[C@H](C(C)C)NC(=O)[C@H]([C@@H](C)CC)NC(=O)[C@H](CC(N)=O)NC(=O)[C@H](CO)NC(=O)[C@H](Cc2c[nH]c3ccccc23)NC(=O)c2ccc(-c3nc(C(=O)OC)cs3)nc2-c2csc1n2 [TL10] (HELM PEPTIDE1{W.S.N.I.V.W.[O=C([C@H](CCCC(=O)[*:3])N[*:1])[*:2]].G.Q.G.I.I.G}|PEPTIDE2{[am]}|CHEM1{[C=C(N[*:2])c1nc(-c2nc(-c3nc(C(=O)OC)cs3)ccc2C(=O)[*:1])cs1]}$PEPTIDE1,PEPTIDE2,7:R3-1:R1|PEPTIDE1,CHEM1,1:R1-1:R1|PEPTIDE1,CHEM1,13:R2-1:R2$$$V2.0; bridges inferred)	4	1	4.7 ± 0.3 h	352							
B1											680 nM
B2											890 nM

— PMC10683472, “Deep Learning-Driven Library Design for the De Novo Discovery of Bioactive Thiopeptides” (ACS Central Science, 2023)
